Assay results: US7947732B2, “Therapeutic substituted chlorocyclopentanols” (Allergan, Inc., priority 2007, dated 2011)
Structures can show the parent of a compound that is named as a salt. Where two headings read alike, the source gives them in different places.

Key:
hTP = target: T1, hTP (Homo sapiens, UniProt P21731); assay: Other receptors functional EC50: hTP; type: cell-based
T1 sequence (P21731 1-343): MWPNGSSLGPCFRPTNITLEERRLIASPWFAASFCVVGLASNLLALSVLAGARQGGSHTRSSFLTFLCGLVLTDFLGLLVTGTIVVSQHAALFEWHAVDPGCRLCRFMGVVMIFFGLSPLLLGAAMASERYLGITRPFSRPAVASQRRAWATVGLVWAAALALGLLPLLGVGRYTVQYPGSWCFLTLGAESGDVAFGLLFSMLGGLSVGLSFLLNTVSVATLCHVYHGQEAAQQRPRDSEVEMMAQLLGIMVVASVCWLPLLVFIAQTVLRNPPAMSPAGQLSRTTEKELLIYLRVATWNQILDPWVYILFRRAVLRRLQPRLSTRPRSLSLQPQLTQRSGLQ
Source text: (§1) U.S. patent application Ser. No. 11/553,143, filed on Oct. 26, 2006, now issued as U.S. Pat. No. 7,427,685 incorporated by reference herein, describes the methods used to obtain the in vitro data in the tables below.

hDP = target: T2, hDP (Homo sapiens, UniProt Q13258); assay: Other receptors functional EC50: hDP; type: cell-based
T2 sequence (Q13258 1-359): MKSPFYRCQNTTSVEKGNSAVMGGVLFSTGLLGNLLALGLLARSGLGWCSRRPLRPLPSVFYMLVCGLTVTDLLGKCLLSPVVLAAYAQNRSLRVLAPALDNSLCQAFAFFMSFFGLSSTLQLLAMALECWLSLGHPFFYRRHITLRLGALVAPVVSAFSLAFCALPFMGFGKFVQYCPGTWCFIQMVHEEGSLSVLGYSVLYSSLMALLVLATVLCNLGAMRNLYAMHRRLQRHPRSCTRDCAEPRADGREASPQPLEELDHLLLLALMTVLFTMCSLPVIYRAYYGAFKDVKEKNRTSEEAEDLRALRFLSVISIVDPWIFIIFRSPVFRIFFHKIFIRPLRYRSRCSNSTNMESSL
Source text: as §1

normotensive dogs [1] = assay: Intraocular pressure in normotensive dogs; type: in vivo; conditions: once daily for 5 days
Source text: (§2) U.S. Pat. No. 7,091,231 describes the methods used for these in vivo tests.

normotensive dogs [2] = assay: Ocular surface hyperemia in normotensive dogs; type: in vivo; set-up: scale not given here
Source text: as §2

EP2 [3] = target: T3, EP2 (Homo sapiens, UniProt P43116); assay: EP2 flipr functional assay; type: cell-based
T3 sequence (P43116 whole entry): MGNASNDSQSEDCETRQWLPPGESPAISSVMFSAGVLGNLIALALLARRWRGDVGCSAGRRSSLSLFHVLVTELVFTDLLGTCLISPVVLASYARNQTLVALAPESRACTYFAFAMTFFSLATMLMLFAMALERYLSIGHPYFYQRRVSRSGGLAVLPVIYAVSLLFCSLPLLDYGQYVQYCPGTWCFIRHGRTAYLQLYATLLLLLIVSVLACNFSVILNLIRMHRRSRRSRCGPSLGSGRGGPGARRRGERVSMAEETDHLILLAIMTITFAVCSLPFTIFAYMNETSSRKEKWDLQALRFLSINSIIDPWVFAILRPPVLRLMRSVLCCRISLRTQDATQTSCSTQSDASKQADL
Source text: as §1

EP2 [4] = target: T3, EP2; assay: EP2 cAMP assay; type: cell-based
Source text: as §1

EP2 [5] = target: T3, EP2; assay: EP2 binding (KI)
Source text: as §1

EP4 [6] = target: T4, EP4 (Homo sapiens, UniProt P35408); assay: EP4 flipr functional assay; type: cell-based; conditions: read-out: EP4 data filpr EC50
T4 sequence (P35408 whole entry): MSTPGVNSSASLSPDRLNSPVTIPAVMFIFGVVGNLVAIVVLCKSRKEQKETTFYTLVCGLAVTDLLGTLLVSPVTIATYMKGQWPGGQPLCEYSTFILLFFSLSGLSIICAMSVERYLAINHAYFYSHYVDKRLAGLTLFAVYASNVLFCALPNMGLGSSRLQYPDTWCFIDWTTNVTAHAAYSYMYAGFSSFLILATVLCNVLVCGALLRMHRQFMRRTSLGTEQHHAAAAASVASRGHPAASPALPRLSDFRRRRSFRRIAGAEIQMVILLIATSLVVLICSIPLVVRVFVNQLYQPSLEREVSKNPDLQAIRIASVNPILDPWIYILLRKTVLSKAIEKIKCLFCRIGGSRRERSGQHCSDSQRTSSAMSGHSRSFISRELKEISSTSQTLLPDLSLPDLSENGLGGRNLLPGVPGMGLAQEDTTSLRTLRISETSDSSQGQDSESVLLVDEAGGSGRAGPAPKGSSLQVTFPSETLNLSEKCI
Source text: as §1

EP4 [7] = target: T4, EP4; assay: EP4 binding (KI)
Source text: as §1

hEP3A = target: T5, hEP3A (Homo sapiens, UniProt P43115); assay: Other receptors functional EC50: hEP3A; type: cell-based
T5 sequence (P43115 1-390): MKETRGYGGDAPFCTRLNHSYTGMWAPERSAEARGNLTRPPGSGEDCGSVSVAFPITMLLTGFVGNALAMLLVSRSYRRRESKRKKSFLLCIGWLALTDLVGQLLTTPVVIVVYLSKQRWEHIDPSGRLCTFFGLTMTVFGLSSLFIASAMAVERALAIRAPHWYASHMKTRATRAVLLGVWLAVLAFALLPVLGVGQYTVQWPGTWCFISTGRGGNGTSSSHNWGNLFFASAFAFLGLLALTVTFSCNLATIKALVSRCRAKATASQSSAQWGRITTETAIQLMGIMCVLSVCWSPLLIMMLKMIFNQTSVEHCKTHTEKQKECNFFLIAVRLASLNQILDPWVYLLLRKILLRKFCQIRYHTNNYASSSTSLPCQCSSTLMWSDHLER
Source text: as §1

[8] = 0.001%, once daily for 5 days, at 50 h

O=C(O)c1ccc(CCC[C@@H]2[C@@H](CSc3cc(F)cc(F)c3)[C@H](O)C[C@H]2Cl)s1
EC50 (hTP): 5310 nM | EC50 (hDP): 9690 nM

CCN(CC)CCOC(=O)c1ccc(CCC[C@@H]2[C@@H](CCc3cc(Cl)cc(Cl)c3)[C@H](O)C[C@H]2Cl)s1 [2-(Diethylamino)ethyl 5-(3-((1R,2R,3R,5R)-5-chloro-2-(3,5-dichlorophenethyl)-3-hydroxycyclopentyl)propyl)thiophene-2-carboxylate hydrochloride]
maximum intraocular pressure (IOP) decrease from baseline (normotensive dogs [1]; 0.0005%, at 28 h): 5.3 mmHg | inhibition in vivo at 0.0005 % (normotensive dogs [1]; Canis lupus familiaris, 0.0005%, at 28 h, read-out: maximum intraocular pressure (IOP) decrease from baseline): 33% | maximum ocular surface hyperemia (OSH) score (normotensive dogs [2]; 0.0005%, once daily for 5 days, at 98 h): 1.25

CCN(CC)CCOC(=O)c1ccc(CCC[C@@H]2[C@@H](CCc3cc(Cl)cc(Cl)c3)[C@H](O)C[C@H]2Cl)s1 [2-(Diethylamino)ethyl 5-(3-((1R,2R,3R,5R)-5-chloro-2-(3,5-dichlorophenethyl)-3-hydroxycyclopentyl)propyl)thiophene-2-carboxylate]
maximum intraocular pressure (IOP) decrease from baseline (normotensive dogs [1]; 0.001%, at 78 h): 6.9 mmHg | inhibition in vivo at 0.001 % (normotensive dogs [1]; Canis lupus familiaris, 0.001%, at 78 h, read-out: maximum intraocular pressure (IOP) decrease from baseline): 47% | maximum ocular surface hyperemia (OSH) score (normotensive dogs [2]; 0.001%, once daily for 5 days, at 28 h): 1.8

O=C(O)c1ccc(CCC[C@@H]2[C@@H](CCc3cc(Cl)cc(Cl)c3)[C@H](O)C[C@H]2Cl)s1 [5-(3-((1R,2R,3R,5R)-5-chloro-2-(3,5-dichlorophenethyl)-3-hydroxycyclopentyl)propyl)thiophene-2-carboxylic acid]
maximum ocular surface hyperemia (OSH) score (normotensive dogs [2]; 0.0001%, once daily for 5 days, at 74 h): 0.8 | maximum ocular surface hyperemia (OSH) score (normotensive dogs [2]; 0.0005%, once daily for 5 days, at 50 h): 1.75 | maximum ocular surface hyperemia (OSH) score (normotensive dogs [2]; [8]): 1.8 | maximum ocular surface hyperemia (OSH) score (normotensive dogs [2]; 0.01%, once daily for 5 days, at 26 h): 2.5

O=C(O)c1ccc(CCC[C@@H]2[C@@H](C[S+]([O-])c3cc(Cl)cc(Cl)c3)[C@H](O)C[C@H]2Cl)s1 (stereo partly drawn) [5-(3-((1R,2R,3R,5R)-5-chloro-2-((3,5-dichlorophenylsulfinyl)methyl)-3-hydroxycyclopentyl)propyl)thiophene-2-carboxylic acid]
maximum intraocular pressure (IOP) decrease from baseline (normotensive dogs [1]; 0.005%, at 4 h): 3.1 mmHg | inhibition in vivo at 0.005 % (normotensive dogs [1]; Canis lupus familiaris, 0.005%, at 4 h, read-out: maximum intraocular pressure (IOP) decrease from baseline): 21% | maximum ocular surface hyperemia (OSH) score (normotensive dogs [2]; 0.005%, once daily for 5 days, at 30 h): 1.4

O=C(O)c1ccc(CCC[C@@H]2[C@@H](CSc3cc(Cl)cc(Cl)c3)[C@H](O)C[C@H]2Cl)s1 [5-(3-((1R,2R,3R,5R)-5-chloro-2-((3,5-dichlorophenylthio)methyl)-3-hydroxycyclopentyl)propyl)-thiophene-2-carboxylic acid]
maximum intraocular pressure (IOP) decrease from baseline (normotensive dogs [1]; 0.01%, at 6 h): 6.3 mmHg | inhibition in vivo at 0.01 % (normotensive dogs [1]; Canis lupus familiaris, 0.01%, at 6 h, read-out: maximum intraocular pressure (IOP) decrease from baseline): 35% | maximum ocular surface hyperemia (OSH) score (normotensive dogs [2]; 0.01%, once daily for 5 days, at 52 h): 1.7

O=C(O)c1ccc(CCC[C@@H]2[C@@H](CNc3cc(Cl)cc(Cl)c3)[C@H](O)C[C@H]2Cl)s1 [5-(3-((1R,2S,3R,5R)-5-chloro-2-((3,5-dichlorophenylamino)methyl)-3-hydroxycyclopentyl)propyl)thiophene-2-carboxylic acid]
maximum intraocular pressure (IOP) decrease from baseline (normotensive dogs [1]; 0.001%, at 6 h): 2.6 mmHg | inhibition in vivo at 0.001 % (normotensive dogs [1]; Canis lupus familiaris, 0.001%, at 6 h, read-out: maximum intraocular pressure (IOP) decrease from baseline): 18% | maximum ocular surface hyperemia (OSH) score (normotensive dogs [2]; 0.001%, once daily for 5 days, at 76 h): 1.5

O=C(O)CCCCCC[C@@H]1[C@@H](CCc2cc(Cl)cc(Cl)c2)[C@H](O)C[C@H]1Cl [7-{(1R,2R,3R,5R)-5-Chloro-2-[2-(3,5-dichloro-phenyl)-ethyl]-3-hydroxy-cyclopentyl}-heptanoic acid]
maximum ocular surface hyperemia (OSH) score (normotensive dogs [2]; 0.01%, once daily for 5 days, at 74 h): 0.8

O=C(O)c1ccc(CCC[C@@H]2[C@@H](CCc3cc(Cl)nc(Cl)c3)[C@H](O)C[C@H]2Cl)s1 [11b, 5-(3-((1R,2R,3R,5R)-5-chloro-2-(2-(2,6-dichloropyridin-4-yl)ethyl)-3-hydroxycyclopentyl)propyl)-thiophene-2-carboxylic acid]
maximum ocular surface hyperemia (OSH) score (normotensive dogs [2]; 0.001%, once daily for 4 days, at 74 h): 1.9

O=C(O)c1ccc(CCC[C@@H]2[C@@H](CCc3cc(Cl)cc(CO)c3)[C@H](O)C[C@H]2Cl)s1 [11c, 5-(3-((1R,2R,3R,5R)-5-chloro-2-(3-chloro-5-(hydroxymethyl)phenethyl)-3-hydroxycyclopentyl)propyl)thiophene-2-carboxylic acid]
maximum ocular surface hyperemia (OSH) score (normotensive dogs [2]; [8]): 0.8

CC(C)OC(=O)c1ccc(CCC[C@@H]2[C@@H](CCc3cc(Cl)cc(CO)c3)[C@H](O)C[C@H]2Cl)s1 [Isopropyl 5-(3-((1R,2R,3R,5R)-5-chloro-2-(3-chloro-5-(hydroxymethyl)phenethyl)-3-hydroxycyclopentyl)propyl)thiophene-2-carboxylate]
maximum ocular surface hyperemia (OSH) score (normotensive dogs [2]; 0.001%, once daily for 5 days, at 26 h): 0.9

O=C(O)c1ccc(CCC[C@@H]2[C@@H](CNc3cc(Cl)cc(Cl)c3)[C@H](O)C[C@H]2Cl)s1 [drawing 6]
EC50 (EP2 [3]): 20 nM | EC50 (EP2 [4]): 0.09 nM | Ki (EP2 [5]): 1.5 nM | EC50 (EP4 [6]): 5580 nM | Ki (EP4 [7]): 678 nM | EC50 (hEP3A): 7140 nM

O=C(O)c1ccc(CCC[C@@H]2[C@@H](C[S+]([O-])c3cc(Cl)cc(Cl)c3)[C@H](O)C[C@H]2Cl)s1 (some centres unmarked) [drawing 8]
Ki (EP4 [7]): > 1000 nM
